≈ marks a conversion by molar mass, not a printed value. Like-named read-outs stand apart in the source and are kept apart here.
Key:
[1] = tested on: staphilococcus epidermidis ATCC 12228; experiment: MIC by dilution method, staphilococcus epidermidis ATCC 12228; assay type: cell-based; conditions: Table I; for MIC: read-out: minimum inhibiting concentration (MIC), ATCC 12228
Text: (§1) The activity of the esters and/or ethers of D-desosamine has been studied by the dilution method to determine the minimum inhibiting concentration (MIC) This method is described and employed by G.A. Denys et al, Antimicrobial Agents and Chemotherapy (1983) 23, 335-337 and J.J. Leyden et al, J. Am. Acad. Dermatol. (1983) 8 (1) 41-5, by using as the procionibacterium acnes strain, strain P37 furnished by Cunliffe and Holland.
(§2) The minimum inhibiting concentration (MIC), expressed in μg/ml of the esters and/or ethers of D-desosamine tested vis-a-vis strains of propionibacterium Acnes P37, P37E⊕ and P37E⊖ and staphilococcus epidermidis ATCC 12228, is reported in the following Table I.

P37 E⊖ (resistant) = experiment: MIC by dilution method, erythromycin-resistant P. acnes strain P37 E⊖; assay type: cell-based, propionibacterium acnes; conditions: for MIC: Cutibacterium acnes
Text: as §1
(§3) On the other hand, after 8 successive sub-cultures in the same medium (RCM* 19/20, DMSO […] by volume) with the view of obtaining a progressive stabilization of this strain in this medium, a progressive resistance to erythromycin was manifested in the following form:
(§4) after spreading a standardized inoculum (DO=1.8 at 450 nm) on a gelose medium (RCM+furazolidone), in a Petri dish, a 9 mm diameter disc is deposited at its center. On the disc, 50 μg of erythromycin (in solution in DMSO) are deposited.
(§5) After 6 days at 36° C. in an anerobic medium (GAS-PAK, B.B.L. system) an inhibition zone of the growth of the strain is clearly visible (total diameter=42 mm), the majority of the colonies being situated at the periphery of the inhibition zone.
(§6) The two types of colonies are then retained by stripping of the gelose medium (sterilized platinum loop):
(§7) (1) at the interior of the inhibition zone there are stripped off strains, called P37 E⊖ by reason of their apparent resistance to erythromycin.
(§8) After isolation and culturing, the P37 E⊕ and P37 E⊖ strains effectively show very different sensitivities to erythromycin as illustrated by the following respective MIC values.
as §2

[2] = tested on: propionibacterium Acnes P37; experiment: MIC by dilution method, Propionibacterium acnes strain P37; assay type: cell-based; conditions: for MIC: Cutibacterium acnes
Text: as §1
This P37 strain has been the object of studies described in the following publications:
as §2

P37 E⊕ (sensitive) = experiment: MIC by dilution method, erythromycin-sensitive P. acnes strain P37 E⊕; assay type: cell-based, propionibacterium acnes; conditions: for MIC: Cutibacterium acnes
Text: as §1, §3, §4, §5, §6
(§9) (2) at 1 cm beyond the periphery of the inhibition zone, there are stripped off strains called P37 E⊕.
as §8, §2

P37 [3] = experiment: IC 50 (50% survivors at constant culturing time), strain P37; assay type: cell-based, propionibacterium acnes; conditions: Cutibacterium acnes, read-out: IC 50 (inhibiting concentration at 50%), P37
Text: (§10) This phenomenon is confirmed by the study of the IC 50 (inhibiting concentration at 50%) which represents the concentration of erythromycin where, at a constant culturing time, 50% survivors among the population are found.

P37 E⊖ = experiment: IC 50 (50% survivors at constant culturing time), strain P37 E⊖; assay type: cell-based, propionibacterium acnes; conditions: Cutibacterium acnes, read-out: IC 50 (inhibiting concentration at 50%), P37 E⊖
Text: as §7, §10

P37 E⊕ = experiment: IC 50 (50% survivors at constant culturing time), strain P37 E⊕; assay type: cell-based, propionibacterium acnes; conditions: Cutibacterium acnes, read-out: IC 50 (inhibiting concentration at 50%), P37 E⊕
Text: as §9, §10

P37 [4] = experiment: Disc diffusion inhibition zone on gelose medium, sub-cultured strain P37; assay type: cell-based, propionibacterium acnes; conditions: Cutibacterium acnes, 144 h, read-out: inhibition zone of the growth of the strain, total diameter
Protocol: as §3, §4, §5

[5] = read-out: minimum inhibiting concentration (MIC), P37 E⊖ (resistant)
[6] = ACNESP37, Table I, P. acnes P37, read-out: minimum inhibiting concentration (MIC), P37
[7] = Table I, erythromycin-sensitive, read-out: minimum inhibiting concentration (MIC), P37 E⊕ (sensitive)

CCCCCCCCO[C@H]1O[C@H](C)C[C@H](N(C)C)[C@H]1OCCCCCCCC [Compound 15, di-O-octyl-1,2-α-D-desosamine]
MIC [1]: 0.3 µg/mL (≈ 0.751 µM)
MIC (P37 E⊖ (resistant); [5]): 0.4 µg/mL (≈ 1 µM)
MIC [2, 6]: 1.8 µg/mL (≈ 4.5 µM)
MIC (P37 E⊕ (sensitive); [7]): 1 µg/mL (≈ 2.5 µM)

CCCCCCCCCCCCCCCCCCO[C@H]1[C@H](OCCCC)O[C@H](C)C[C@@H]1N(C)C [Compound 10]
MIC [1]: 0.04 µg/mL (≈ 0.0827 µM)
MIC (P37 E⊖ (resistant); [5]): 1.56 µg/mL (≈ 3.22 µM)
MIC [2, 6]: 3.12 µg/mL (≈ 6.45 µM)
MIC (P37 E⊕ (sensitive); [7]): 0.09 µg/mL (≈ 0.186 µM)

CCCCCCCCCCCC(=O)O[C@H]1[C@H](OCCCC)O[C@H](C)C[C@@H]1N(C)C [Compound 3, O-dodecanoyl-2-O-butyl-1-β-D-desosamine]
MIC (P37 E⊖ (resistant); [5]): 1.9 µg/mL (≈ 4.59 µM)
MIC [2, 6]: 15 µg/mL (≈ 36.3 µM)
MIC (P37 E⊕ (sensitive); [7]): 0.1 µg/mL (≈ 0.242 µM)

CC[C@H]1OC(=O)[C@H](C)[C@@H](O[C@H]2C[C@@](C)(OC)[C@@H](O)[C@H](C)O2)[C@H](C)[C@@H](O[C@@H]2O[C@H](C)C[C@H](N(C)C)[C@H]2O)[C@](C)(O)C[C@@H](C)C(=O)[C@H](C)[C@@H](O)[C@]1(C)O [erythromycin]
IC50 (P37 [3]): 50 µg/mL (≈ 68.1 µM)
MIC (P37 E⊖ (resistant); read-out: MIC, P37 E⊖): 50 µg/mL (≈ 68.1 µM)
MIC ([2]; ACNESP37, read-out: minimum inhibiting concentration (MIC), P37): 0.78 µg/mL (≈ 1.06 µM)
IC50 (P37 E⊖): 100 µg/mL (≈ 136 µM)
IC50 (P37 E⊕): 5 µg/mL (≈ 6.81 µM)
MIC (P37 E⊕ (sensitive); read-out: MIC, P37 E⊕): 0.78 µg/mL (≈ 1.06 µM)
zone of inhibition at 50 µg/disc (P37 [4]): 42 mm

CCCCCCCCOC1O[C@H](C)C[C@H](N(C)C)[C@H]1OCCCCCCCC (stereo partly drawn) [Compound 14, di-O-octyl-1,2-α,β-D-desosamine]
MIC [1]: 0.5 µg/mL (≈ 1.25 µM)
MIC (P37 E⊖ (resistant); [5]): 0.1 µg/mL (≈ 0.25 µM)
MIC [2, 6]: 0.5 µg/mL (≈ 1.25 µM)
MIC (P37 E⊕ (sensitive); [7]): 0.6 µg/mL (≈ 1.5 µM)

CCCCCCCCO[C@@H]1O[C@H](C)C[C@H](N(C)C)[C@H]1OCCCCCCCC [Compound 16, di-O-octyl-1,2-β-D-desosamine]
MIC [1]: 1.2 µg/mL (≈ 3 µM)
MIC (P37 E⊖ (resistant); [5]): 0.15 µg/mL (≈ 0.375 µM)
MIC [2, 6]: 0.7 µg/mL (≈ 1.75 µM)
MIC (P37 E⊕ (sensitive); [7]): 0.3 µg/mL (≈ 0.751 µM)

CCCCCCCCCCCO[C@H]1[C@@H](OCCCCCCCCCC)O[C@H](C)C[C@@H]1N(C)C [Compound 12]
MIC [1]: 0.8 µg/mL (≈ 1.7 µM)
MIC (P37 E⊖ (resistant); [5]): 0.8 µg/mL (≈ 1.7 µM)
MIC [2, 6]: 1.8 µg/mL (≈ 3.83 µM)
MIC (P37 E⊕ (sensitive); [7]): 1 µg/mL (≈ 2.13 µM)

CCCCCCCCCCCCC(CCCCCCCCCC)CO[C@H]1C(OCCCC)O[C@H](C)C[C@@H]1N(C)C (stereo partly drawn) [Compound 17, O-(2-decyl)-tetradecyl-2-O-butyl-1-α,β-D-desosamine]
MIC (P37 E⊖ (resistant); [5]): 6 µg/mL (≈ 10.6 µM)
MIC [2, 6]: 12.5 µg/mL (≈ 22 µM)
MIC (P37 E⊕ (sensitive); [7]): 11 µg/mL (≈ 19.4 µM)

CCCCCCCCCCCO[C@H]1[C@H](OCCCCCCCCCC)O[C@H](C)C[C@@H]1N(C)C [Compound 13]
MIC [1]: 0.06 µg/mL (≈ 0.128 µM)
MIC (P37 E⊖ (resistant); [5]): 0.02 µg/mL (≈ 0.0426 µM)
MIC [2, 6]: 1 µg/mL (≈ 2.13 µM)
MIC (P37 E⊕ (sensitive); [7]): 0.5 µg/mL (≈ 1.06 µM)

CCCCC/C=C\C/C=C\CCCCCCCC(=O)O[C@H]1C(OCCCC)O[C@H](C)C[C@@H]1N(C)C (stereo partly drawn) [Compound 6, O-linoleoyl-2-O-butyl-1-α,β-D-desosamine]
MIC [1]: 0.2 µg/mL (≈ 0.405 µM)
MIC (P37 E⊖ (resistant); [5]): 0.8 µg/mL (≈ 1.62 µM)
MIC [2, 6]: 0.4 µg/mL (≈ 0.81 µM)
MIC (P37 E⊕ (sensitive); [7]): 0.7 µg/mL (≈ 1.42 µM)

CCCCCCCCCCCCCCCCCCO[C@H]1C(OCCCC)O[C@H](C)C[C@@H]1N(C)C (stereo partly drawn) [Compound 8, O-octadecyl-2-O-butyl-1-α,β-D-desosamine]
MIC [1]: 2.2 µg/mL (≈ 4.55 µM)
MIC (P37 E⊖ (resistant); [5]): 8.8 µg/mL (≈ 18.2 µM)
MIC [2, 6]: 0.25 µg/mL (≈ 0.517 µM)
MIC (P37 E⊕ (sensitive); [7]): < 0.03 µg/mL

CCCCCCCCCCCC(=O)O[C@H]1C(OCCCC)O[C@H](C)C[C@@H]1N(C)C (stereo partly drawn) [Compound 2, O-dodecanoyl-2-O-butyl-1-α,β-D-desosamine]
MIC [1]: 3.5 µg/mL (≈ 8.46 µM)
MIC (P37 E⊖ (resistant); [5]): 0.9 µg/mL (≈ 2.18 µM)
MIC [2, 6]: 0.4 µg/mL (≈ 0.967 µM)
MIC (P37 E⊕ (sensitive); [7]): 0.6 µg/mL (≈ 1.45 µM)

CCCCCCCCCCCO[C@H]1C(OCCCCCCCCCC)O[C@H](C)C[C@@H]1N(C)C (some centres unmarked) [Compound 11]
MIC [1]: 0.7 µg/mL (≈ 1.49 µM)
MIC (P37 E⊖ (resistant); [5]): 0.8 µg/mL (≈ 1.7 µM)
MIC [2, 6]: 4 µg/mL (≈ 8.51 µM)
MIC (P37 E⊕ (sensitive); [7]): 0.7 µg/mL (≈ 1.49 µM)

CCCCCCCCCC(=O)O[C@H]1C(OCCCC)O[C@H](C)C[C@@H]1N(C)C (stereo partly drawn) [Compound 1, O-decanoyl-2-O-butyl-1-α,β-D-desosamine]
MIC [1]: 5 µg/mL (≈ 13 µM)
MIC (P37 E⊖ (resistant); [5]): 3.2 µg/mL (≈ 8.3 µM)
MIC [2, 6]: 9 µg/mL (≈ 23.3 µM)
MIC (P37 E⊕ (sensitive); [7]): 9 µg/mL (≈ 23.3 µM)

O-dodecanoyl-2'-erythralosamine [Compound 18]
minimum inhibiting concentration (MIC), ATCC 12228 [1]: 1.5 µg/mL
minimum inhibiting concentration (MIC), P37 E⊖ (resistant) (P37 E⊖ (resistant); Table I, erythromycin-resistant): 0.4 µg/mL
minimum inhibiting concentration (MIC), P37 ([2]; Table I, P. acnes P37): 0.4 µg/mL
minimum inhibiting concentration (MIC), P37 E⊕ (sensitive) (P37 E⊕ (sensitive); Table I, erythromycin-sensitive): 12.5 µg/mL

CCCCC/C=C\C/C=C\CCCCCCCC(=O)O[C@H]1[C@@H](OCCCC)O[C@H](C)C[C@@H]1N(C)C [Compound 7, O-linoleoyl-2-O-butyl-1-α-D-desosamine]
MIC [1]: 1.1 µg/mL (≈ 2.23 µM)
MIC [2, 6]: 0.15 µg/mL (≈ 0.304 µM)
MIC (P37 E⊕ (sensitive); [7]): 1.1 µg/mL (≈ 2.23 µM)

CCCCCCCCCCCC(=O)O[C@H]1C(OC)O[C@H](C)C[C@@H]1N(C)C (stereo partly drawn) [Compound 4, O-dodecanoyl-2-O-methyl-1-α,β-D-desosamine]
MIC [1]: 3.8 µg/mL (≈ 10.2 µM)
MIC [2, 6]: 25 µg/mL (≈ 67.3 µM)
MIC (P37 E⊕ (sensitive); [7]): 15 µg/mL (≈ 40.4 µM)

CCCCCCCCCCCCCCCCCCO[C@H]1[C@@H](OCCCC)O[C@H](C)C[C@@H]1N(C)C [Compound 9, O-octadecyl-2-O-butyl-1-α-D-desosamine]
MIC [1]: 0.8 µg/mL (≈ 1.65 µM)
MIC (P37 E⊖ (resistant); [5]): 27.5 µg/mL (≈ 56.8 µM)
MIC [2, 6]: 0.1 µg/mL (≈ 0.207 µM)
MIC (P37 E⊕ (sensitive); read-out: minimum inhibiting concentration (MIC), P37 E⊕ (sensitive)): 27.5 µg/mL (≈ 56.8 µM)

CCCCCCCCCCCC(=O)O[C@H]1[C@@H](OC)O[C@H](C)C[C@@H]1N(C)C [Compound 5, O-dodecanoyl-2-O-methyl-1-α-D-desosamine]
MIC [1]: 3.2 µg/mL (≈ 8.61 µM)
MIC [2, 6]: 50 µg/mL (≈ 135 µM)
MIC (P37 E⊕ (sensitive); [7]): 50 µg/mL (≈ 135 µM)

— patent US5141929A, “Lipophilic ethers and/or esters of D-desosamine and their compositions as anti-bacteria and anti-fungus agents” (Societe Anonyme dite: L'Oreal, priority 1988, dated 1992)
